The target in assay [1] is T1, SYK kinase (Homo sapiens, UniProt P43405).
T1 construct: purchased Invitrogen, Carlsbad
Put plainly: SYK assay (OMNIA Kinase Assay, Invitrogen). Format: biochemical. As to conditions: apparent Ki calculated from the IC50 using the Cheng-Prusoff equation; 1 mM ATP, 10 μM Peptide Substrate; read-out: SYK Activities: Ki. The method in brief:
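Continuous SOX-fluorescence (Omnia) readout of Tyr 7 peptide (10 μM) phosphorylation with 1 mM ATP and 0.2 mM DTT at 30° C, started by SYK addition. Fluorescence (λex 360/λem 485 nm) was read every 30 s for 30 min. IC50 from velocity vs concentration; apparent Ki via Cheng-Prusoff.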

In assay [2] the target is LRRK2 (Homo sapiens, UniProt Q5S007). Put plainly: LRRK2 assay (LanthaScreen Eu Kinase Binding Assay). The following applies: 5 nM LRRK2, 10 nM tracer 236, RT 1 h; read-out: LRRK2 Activites: IC50. Put shortly: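 Kinase binding was detected by europium anti-tag antibody FRET with a competing tracer, so inhibitor binding lowers the FRET signal. IC50 came from a variable-slope sigmoidal fit of emission ratio against inhibitor concentration.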
For orientation: In TR-FRET formats the signal depends on donor and acceptor labels being close together.

Assay [3] deals with MYLK (Homo sapiens, UniProt Q15746). Put plainly: MYLK assay (LanthaScreen Eu Kinase Binding Assay). As to conditions: 5 nM MYLK, 30 nM tracer 236, RT 1 h; read-out: MYLK Activites: IC50. The procedure: In the assay LanthaScreen™ Eu Kinase Binding Assay by Invitrogen Corporation (Carlsbad) the effect of invention of a compound on the phosphorylation is determined by measurement of fluorescence intensity emission ratio based on the binding and displacement of a proprietary, Alexa Fluor® 647-labeled, ATP-competitive kinase inhibitor scaffold (kinase tracer) to the kinase of interest as described above.
To the wells of an 384 well small volume plate (Greiner, Frickenhausen) are added (i) the compound under test in 5% DMSO/distilled water (5 μl), (ii) 5 μl of the kinase antibody mixture resulting in a final concentration 5 nM MYLK, 2 nM EU-Anti-GST antibody in 1× kinase buffer A. The reaction was started with addition of (iii) 5 μl resulting in a final concentration of 30 nM tracer 236. The assay plate was incubated at RT for 1 h and fluorescence intensitiy readings were collected using a TECAN M1000 at two wavelengthes of λex 340/λem 615 nm and λex 340/λem 665 nm with a delay time of 100 μs and an integration time of 200 μs after 60 minutes. The emission ratio was calculated by division of the acceptor/tracer emission ([…]) by the antibody/donor emission ([…]). The inhibitor concentration was plotted versus the emission ratio to determine the IC50 using XLFit 5.0 (IDBS, Guildford) to fit to a sigmoidal dose response curve with a variable slope.

SMILES strings stand for the structures.

Sequence of LRRK2 (Q5S007 970-2527 limits assumed): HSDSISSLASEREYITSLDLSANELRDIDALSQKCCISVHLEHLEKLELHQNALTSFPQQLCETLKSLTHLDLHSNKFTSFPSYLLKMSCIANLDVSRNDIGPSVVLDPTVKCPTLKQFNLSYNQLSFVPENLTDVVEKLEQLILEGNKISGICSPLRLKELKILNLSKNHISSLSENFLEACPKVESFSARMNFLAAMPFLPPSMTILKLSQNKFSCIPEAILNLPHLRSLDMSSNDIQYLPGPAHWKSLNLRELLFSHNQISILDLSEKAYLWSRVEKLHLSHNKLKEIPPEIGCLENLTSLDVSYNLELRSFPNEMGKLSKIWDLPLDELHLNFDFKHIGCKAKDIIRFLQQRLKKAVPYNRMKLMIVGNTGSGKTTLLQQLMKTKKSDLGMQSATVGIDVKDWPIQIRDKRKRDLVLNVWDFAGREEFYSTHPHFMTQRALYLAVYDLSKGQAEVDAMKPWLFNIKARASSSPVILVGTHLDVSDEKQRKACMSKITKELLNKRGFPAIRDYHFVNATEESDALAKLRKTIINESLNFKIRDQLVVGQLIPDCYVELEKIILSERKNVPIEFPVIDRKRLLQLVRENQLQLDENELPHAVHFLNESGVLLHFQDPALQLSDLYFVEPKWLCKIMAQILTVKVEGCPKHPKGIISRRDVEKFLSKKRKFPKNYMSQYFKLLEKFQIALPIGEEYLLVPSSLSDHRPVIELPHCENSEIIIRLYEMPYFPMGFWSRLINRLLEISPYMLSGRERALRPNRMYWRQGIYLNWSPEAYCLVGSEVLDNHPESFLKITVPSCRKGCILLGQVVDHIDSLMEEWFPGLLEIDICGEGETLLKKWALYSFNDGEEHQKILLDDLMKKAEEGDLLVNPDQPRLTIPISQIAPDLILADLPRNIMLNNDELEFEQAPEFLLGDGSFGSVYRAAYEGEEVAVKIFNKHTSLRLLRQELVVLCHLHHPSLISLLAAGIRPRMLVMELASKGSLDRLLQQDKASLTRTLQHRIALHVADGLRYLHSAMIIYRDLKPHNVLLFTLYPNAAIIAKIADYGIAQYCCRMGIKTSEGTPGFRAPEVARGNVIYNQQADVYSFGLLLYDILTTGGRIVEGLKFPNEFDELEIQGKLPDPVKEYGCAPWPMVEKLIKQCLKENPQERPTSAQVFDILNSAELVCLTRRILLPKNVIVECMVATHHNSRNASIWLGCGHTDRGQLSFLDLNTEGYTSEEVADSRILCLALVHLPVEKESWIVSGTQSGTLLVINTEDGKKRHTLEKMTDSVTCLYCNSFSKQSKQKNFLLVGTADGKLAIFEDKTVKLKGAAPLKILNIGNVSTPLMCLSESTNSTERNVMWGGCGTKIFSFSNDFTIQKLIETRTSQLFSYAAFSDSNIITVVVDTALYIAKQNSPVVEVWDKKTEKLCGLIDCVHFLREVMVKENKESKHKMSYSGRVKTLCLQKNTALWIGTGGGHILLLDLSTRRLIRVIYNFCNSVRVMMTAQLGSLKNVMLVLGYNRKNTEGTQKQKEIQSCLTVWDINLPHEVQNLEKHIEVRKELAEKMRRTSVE
Sequence of MYLK (Q15746 whole entry): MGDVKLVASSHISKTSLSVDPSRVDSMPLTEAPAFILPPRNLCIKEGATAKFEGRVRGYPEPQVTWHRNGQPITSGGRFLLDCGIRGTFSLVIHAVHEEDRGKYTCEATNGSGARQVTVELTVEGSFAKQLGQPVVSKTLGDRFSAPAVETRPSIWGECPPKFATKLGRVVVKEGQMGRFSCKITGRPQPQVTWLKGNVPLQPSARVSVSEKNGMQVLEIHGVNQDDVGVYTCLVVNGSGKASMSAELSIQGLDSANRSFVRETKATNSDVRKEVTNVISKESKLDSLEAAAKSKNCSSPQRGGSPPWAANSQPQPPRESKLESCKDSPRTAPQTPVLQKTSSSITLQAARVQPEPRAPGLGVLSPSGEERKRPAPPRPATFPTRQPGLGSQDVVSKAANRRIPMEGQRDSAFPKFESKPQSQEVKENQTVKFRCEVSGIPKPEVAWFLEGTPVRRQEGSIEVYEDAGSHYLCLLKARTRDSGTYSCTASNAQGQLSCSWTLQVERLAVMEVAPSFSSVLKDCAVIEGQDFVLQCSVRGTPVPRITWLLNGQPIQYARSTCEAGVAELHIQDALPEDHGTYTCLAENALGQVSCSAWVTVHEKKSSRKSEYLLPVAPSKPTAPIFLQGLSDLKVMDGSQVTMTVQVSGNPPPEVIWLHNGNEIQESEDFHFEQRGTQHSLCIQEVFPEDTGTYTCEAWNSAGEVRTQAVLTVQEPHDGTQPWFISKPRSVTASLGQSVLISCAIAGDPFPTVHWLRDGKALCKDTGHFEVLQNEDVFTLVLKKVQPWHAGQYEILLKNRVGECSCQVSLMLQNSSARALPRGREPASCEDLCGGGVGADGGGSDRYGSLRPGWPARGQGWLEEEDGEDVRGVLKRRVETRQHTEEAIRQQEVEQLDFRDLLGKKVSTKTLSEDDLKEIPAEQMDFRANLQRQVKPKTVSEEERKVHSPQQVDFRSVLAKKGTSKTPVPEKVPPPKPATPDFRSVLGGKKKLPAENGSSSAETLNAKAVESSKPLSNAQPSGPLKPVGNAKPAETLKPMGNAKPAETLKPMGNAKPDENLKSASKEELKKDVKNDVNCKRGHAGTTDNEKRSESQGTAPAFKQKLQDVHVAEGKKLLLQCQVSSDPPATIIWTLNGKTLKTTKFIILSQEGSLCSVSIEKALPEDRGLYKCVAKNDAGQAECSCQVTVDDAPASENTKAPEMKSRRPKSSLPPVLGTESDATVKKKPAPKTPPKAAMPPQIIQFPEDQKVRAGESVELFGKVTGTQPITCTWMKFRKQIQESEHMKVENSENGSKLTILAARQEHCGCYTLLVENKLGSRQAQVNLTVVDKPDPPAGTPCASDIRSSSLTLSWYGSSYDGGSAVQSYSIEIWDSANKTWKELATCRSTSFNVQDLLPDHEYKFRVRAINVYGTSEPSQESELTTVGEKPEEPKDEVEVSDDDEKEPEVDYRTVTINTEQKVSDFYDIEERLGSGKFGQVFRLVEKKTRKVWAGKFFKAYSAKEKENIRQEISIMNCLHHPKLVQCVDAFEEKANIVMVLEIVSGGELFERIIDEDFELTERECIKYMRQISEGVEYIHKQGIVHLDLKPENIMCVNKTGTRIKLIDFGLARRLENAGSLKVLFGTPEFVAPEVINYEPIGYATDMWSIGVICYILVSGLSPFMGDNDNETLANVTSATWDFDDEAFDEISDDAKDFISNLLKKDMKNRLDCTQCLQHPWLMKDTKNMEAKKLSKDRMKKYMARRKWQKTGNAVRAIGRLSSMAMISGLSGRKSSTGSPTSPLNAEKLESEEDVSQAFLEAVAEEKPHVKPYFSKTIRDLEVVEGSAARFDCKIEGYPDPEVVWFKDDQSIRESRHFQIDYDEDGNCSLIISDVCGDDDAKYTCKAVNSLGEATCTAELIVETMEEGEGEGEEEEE

A word on the IC50: it is the concentration that inhibits the measured activity by half. In the case of `COc1ccc2nc(Nc3ccc(N4CCOCC4=O)cc3)c3n[nH]cc3c2c1` [Example #87, 4-[4-(8-Methoxy-2H-pyrazolo[3,4-c]quinolin-4-ylamino)-phenyl]-morpholin-3-one], in assay [1], the Ki was 100 to 1000 nM. Also, the half-inhibitory concentration (IC50) in assay [2] is 10 to 100 nM; in assay [3], under 5000 nM.

`COc1ccc2nc(Nc3ccc(-c4nnn[nH]4)cc3)c3[nH]ncc3c2c1` [Example #98, (8-Methoxy-3H-pyrazolo[3,4-c]quinolin-4-yl)-[4-(1H-tetrazol-5-yl)-phenyl]-amine]: the Ki in assay [1] is 100 to 1000 nM. The IC50 in assay [2] is 100 to 1000 nM; in assay [3], under 5000 nM.

As for `COc1ccc2nc(Nc3ccc(C4CCN(C)CC4)cc3)c3n[nH]cc3c2c1` [Example #102, (8-Methoxy-2H-pyrazolo[3,4-c]quinolin-4-yl)-[4-(1-methyl-piperidin-4-yl)-phenyl]-amine], the Ki in assay [1] is 10 to 100 nM. Further, the IC50 in assay [2] is 100 to 1000 nM; in assay [3] it was under 5000 nM.

As for `COc1ccc2nc(Nc3ccc(CC(N)=O)cc3)c3[nH]ncc3c2c1` [Example #112, 2-[4-(8-Methoxy-3H-pyrazolo[3,4-c]quinolin-4-ylamino)-phenyl]-acetamide], the Ki in assay [1] is 10 to 100 nM. Also, the IC50 in assay [2] was 100 to 1000 nM; in assay [3], under 5000 nM.

Regarding `COc1ccc2nc(Nc3ccc(OC)c(O)c3)c3n[nH]cc3c2c1` [Example #118, 2-Methoxy-5-(8-methoxy-2H-pyrazolo[3,4-c]quinolin-4-ylamino)-phenol], the Ki in assay [1] is under 10 nM. The IC50 in assay [2] is 10 to 100 nM; in assay [3], under 5000 nM.

Regarding `COc1ccc2nc(Nc3cccc(NC(C)=O)c3)c3[nH]ncc3c2c1` [Example #120, N-[3-(8-Methoxy-3H-pyrazolo[3,4-c]quinolin-4-ylamino)-phenyl]-acetamide], the Ki in assay [1] was 10 to 100 nM. The half-maximal inhibitory concentration (IC50) in assay [2] is 10 to 100 nM; in assay [3], under 5000 nM.

Consider `COc1ccc2nc(Nc3cn[nH]c3)c3[nH]ncc3c2c1` [Example #121, (8-Methoxy-3H-pyrazolo[3,4-c]quinolin-4-yl)-(1H-pyrazol-4-yl)-amine], for which, in assay [1], the Ki was 10 to 100 nM. Also, the IC50 in assay [2] is 100 to 1000 nM; in assay [3], under 5000 nM.

As to `COc1ccc(Nc2nc3cc(OC)c(OC)cc3c3c[nH]nc23)cc1OC` [Example #122, (3,4-Dimethoxy-phenyl)-(7,8-dimethoxy-2H-pyrazolo[3,4-c]quinolin-4-yl)-amine], the Ki in assay [1] was 10 to 100 nM. Besides, the values for the 50% inhibitory concentration (IC50) in assay [2] and in assay [3] were 100 to 1000 nM and under 5000 nM, respectively.

Take `COc1ccc2nc(Nc3ccc4c(c3)ncn4C)c3n[nH]cc3c2c1` [Example #126, (8-Methoxy-2H-pyrazolo[3,4-c]quinolin-4-yl)-(1-methyl-1H-benzoimidazol-5-yl)-amine]: in assay [1], the Ki was 100 to 1000 nM. In addition, the IC50 was 100 to 1000 nM in assay [2] and under 5000 nM in assay [3].

For `COc1ccc2nc(Nc3ccc(NC(C)=O)cc3)c3n[nH]cc3c2c1` [Example #128, N-[4-(8-Methoxy-2H-pyrazolo[3,4-c]quinolin-4-ylamino)-phenyl]-acetamide], in assay [1], the Ki is 10 to 100 nM. Further, the IC50 is 100 to 1000 nM in assay [2] and under 5000 nM in assay [3].

For `COc1ccc2nc(Nc3cccc(S(N)(=O)=O)c3)c3n[nH]cc3c2c1` [Example #131, 3-(8-Methoxy-2H-pyrazolo[3,4-c]quinolin-4-ylamino)-benzenesulfonamide], the Ki in assay [1] is 100 to 1000 nM. The IC50 in assay [2] is 10 to 100 nM; in assay [3], under 5000 nM.

For the molecule `COc1ccc2nc(Nc3ccc(S(N)(=O)=O)cc3)c3n[nH]cc3c2c1` [Example #132, 4-(8-Methoxy-2H-pyrazolo[3,4-c]quinolin-4-ylamino)-benzenesulfonamide], the Ki in assay [1] was 10 to 100 nM. The IC50 in assay [2] was 10 to 100 nM; in assay [3], under 5000 nM.

As for `COc1cc2nc(Nc3ccc(N4CCOCC4)cc3)c3n[nH]cc3c2cc1OC` [Example #133, (7,8-Dimethoxy-2H-pyrazolo[3,4-c]quinolin-4-yl)-(4-morpholin-4-yl-phenyl)-amine], the Ki in assay [1] is 10 to 100 nM. In addition, the IC50 was 100 to 1000 nM in assay [2] and under 5000 nM in assay [3].

For `COc1cc2nc(Nc3ccc(N4CCN(C)CC4)cc3)c3n[nH]cc3c2cc1OC` [Example #134, (7,8-Dimethoxy-2H-pyrazolo[3,4-c]quinolin-4-yl)-[4-(4-methyl-piperazin-1-yl)-phenyl]-amine], in assay [1], the Ki is 10 to 100 nM. Moreover, the IC50 was 100 to 1000 nM in assay [2] and under 5000 nM in assay [3].

Regarding `COc1cc2nc(Nc3ccc4cn[nH]c4c3)c3n[nH]cc3c2cc1OC` [Example #136, (7,8-Dimethoxy-2H-pyrazolo[3,4-c]quinolin-4-yl)-(1H-indazol-6-yl)-amine], in assay [1], the Ki was 10 to 100 nM. The half-maximal inhibitory concentration (IC50) is 100 to 1000 nM in assay [2] and under 5000 nM in assay [3].

`COc1ccc2nc(Nc3ccc(OC)c(NC(C)=O)c3)c3n[nH]cc3c2c1` [Example #142, N-[2-Methoxy-5-(8-methoxy-2H-pyrazolo[3,4-c]quinolin-4-ylamino)-phenyl]-acetamide]: the Ki in assay [1] is 10 to 100 nM. Moreover, the IC50 in assay [2] was 100 to 1000 nM; in assay [3], under 5000 nM.

As to `COc1ccc2nc(Nc3ccc4c(c3)COC4)c3n[nH]cc3c2c1` [Example #147, (1,3-Dihydro-isobenzofuran-5-yl)-(8-methoxy-2H-pyrazolo[3,4-c]quinolin-4-yl)-amine], the Ki in assay [1] was 10 to 100 nM. In addition, the IC50 is 10 to 100 nM in assay [2] and under 5000 nM in assay [3].

On to `COc1ccc2nc(Nc3ccc4ncn(C)c4c3)c3n[nH]cc3c2c1` [Example #148, (8-Methoxy-2H-pyrazolo[3,4-c]quinolin-4-yl)-(3-methyl-3H-benzoimidazol-5-yl)-amine], for which the Ki in assay [1] was 100 to 1000 nM. The figures for the IC50 in assay [2] and in assay [3] were 100 to 1000 nM and under 5000 nM, respectively.

Consider `COc1cc2nc(Nc3cc(C4CC4)[nH]n3)c3n[nH]cc3c2cc1OC` [Example #150, (5-Cyclopropyl-1H-pyrazol-3-yl)-(7,8-dimethoxy-2H-pyrazolo[3,4-c]quinolin-4-yl)-amine], for which the Ki in assay [1] is 10 to 100 nM. Besides, the IC50 was 10 to 100 nM in assay [2] and under 5000 nM in assay [3].

For the molecule `COc1ccc(Nc2nc3cc(OC)c(OC)cc3c3c[nH]nc23)cc1O` [Example #152, 5-(7,8-Dimethoxy-2H-pyrazolo[3,4-c]quinolin-4-ylamino)-2-methoxy-phenol], the Ki in assay [1] is 10 to 100 nM. Moreover, the IC50 was 100 to 1000 nM in assay [2] and under 5000 nM in assay [3].

Consider `COc1ccc2nc(Nc3ccc4c(c3)nc3n4CCN(C)C3)c3n[nH]cc3c2c1` [Example #160, (8-Methoxy-2H-pyrazolo[3,4-c]quinolin-4-yl)-(2-methyl-1,2,3,4-tetrahydro-benzo[4,5]imidazo[1,2-a]pyrazin-8-yl)-amine], for which the Ki in assay [1] is 10 to 100 nM. Further, the IC50 in assay [2] was 100 to 1000 nM; in assay [3] it was under 5000 nM.

As for `COc1ccc2nc(Nc3ccc(O)c(O)c3)c3n[nH]cc3c2c1` [Example #162, 4-(8-Methoxy-2H-pyrazolo[3,4-c]quinolin-4-ylamino)-benzene-1,2-diol], the Ki in assay [1] was 10 to 100 nM. For the same molecule, the figures for the IC50 in assay [2] and in assay [3] were 100 to 1000 nM and under 5000 nM, respectively.

On to `COc1ccc2nc(Nc3ccc(OC4CCN(C)CC4)cc3)c3n[nH]cc3c2c1` [Example #163, (8-Methoxy-2H-pyrazolo[3,4-c]quinolin-4-yl)-[4-(1-methyl-piperidin-4-yloxy)-phenyl]-amine], for which, in assay [1], the Ki is 10 to 100 nM. Moreover, the IC50 in assay [2] is 100 to 1000 nM; in assay [3], under 5000 nM.

For the molecule `COc1ccc2nc(Nc3ccc(N4CCN(C(C)=O)CC4)cc3)c3n[nH]cc3c2c1` [Example #164, 1-{4-[4-(8-Methoxy-2H-pyrazolo[3,4-c]quinolin-4-ylamino)-phenyl]-piperazin-1-yl}-ethanone], the Ki in assay [1] is under 10 nM. The IC50 in assay [2] is 10 to 100 nM; in assay [3], under 5000 nM.

With `COc1ccc2nc(Nc3ccc(N4CCN(C)CC4)nc3)c3n[nH]cc3c2c1` [Example #165, (8-Methoxy-2H-pyrazolo[3,4-c]quinolin-4-yl)-[6-(4-methyl-piperazin-1-yl)-pyridin-3-yl]-amine], the Ki in assay [1] was 10 to 100 nM. The IC50 was 10 to 100 nM in assay [2] and under 5000 nM in assay [3].

`COc1cccc2c1nc(Nc1ccc(N3CCN(C)CC3)cc1)c1n[nH]cc12` [Example #166, (6-Methoxy-2H-pyrazolo[3,4-c]quinolin-4-yl)-[4-(4-methyl-piperazin-1-yl)-phenyl]-amine]: the Ki in assay [1] was 10 to 100 nM. The IC50 in assay [2] was 100 to 1000 nM; in assay [3], under 5000 nM.

The values are drawn from patent US9499535B2, “Kinase inhibitors” (ORIGENIS GMBH, priority 2011, dated 2016).
